Consider 24 compounds from US8354402B2, “Polyarylcarboxamides useful as lipid lowering agents” (Janssen Pharmaceutica N.V., priority 2000, dated 2013).

Structures are written as SMILES. pIC50: −log10 of the molar value. A value given as a limit tells only on which side of the number the result lay.

This assay concerns ApoB secretion, HepG2 cells. Put plainly: Quantification of the secretion of ApoB (HepG2 cells, immunoprecipitation, scintillation counting). It counts as cell-based. The settings on record: Homo sapiens, HepG2, 24 h, 24 hours of incubation. As to the method:
C.1. Quantification of the Secretion of ApoB
HepG2 cells were cultured in 24-well plates in Minimal Essential Medium Rega 3 containing 10% fetal calf serum. Rega 3 has the following composition: CaCl2 (264 μg/ml), KCl (400 μg/ml), MgSO4.7H2O (200 μg/ml), NaCl (6800 μg/ml), NaHCO3 (850 μg/ml), NaH2PO4.H2O (158 μg/ml), D-glucose (1000 μg/ml), phenol red (10 μg/ml), L-alanine (8.9 μg/ml), L-arginine HCl (12 μg/ml), L-asparagine.H2O (15 μg/ml), L-aspartic acid (13.3 μg/ml), L-cystine (24 μg/ml), L-glutamic acid (14.7 μg/ml), glycine (7.5 μg/ml), L-histidine.HCl .H2O (42 μg/ml), L-isoleucine (52 μg/ml), L-leucine (52 μg/ml), L-lysine.HCl (72.5 μg/ml), L-methionine (15 μg/ml), L-phenylalanine (32 μg/ml), L-proline (11.5 μg/ml), L-serine (10.5 μg/ml), L-threonine (48 μg/ml), L-tryptophan (10 μg/ml), L-tyrosine (36 μg/ml), L-valine (46 μg/ml), D-Ca pantothenate (1 μg/ml), choline chloride (1 μg/ml), folic acid (1 μg/ml), 1-enositol (2 μg/ml), nicotinamide (1 μg/ml), pyridoxal HCl (1 μg/ml), riboflavin (0.1 μg/ml) and thiamine HCl (1 μg/ml).
At 70% confluency, the medium was changed and the test compound or carrier (dimethylsulfoxide, 0.4% final concentration) was added. After 24 hours of incubation, the medium was transferred to Eppendorf tubes and cleared by centrifugation. A sheep antibody directed against either apo B was added to the supernatant and the mixture was kept at 8° C. for 24 hours. Then, rabbit anti-sheep antibody was added and the immune complex was allowed to precipitate for 24 hours at 8° C. The immunoprecipitate was pelleted by centrifugation for 25 minutes at 1320 g and washed twice with a buffer containing 40 mM 4-morpholinepropanesulfonic acid, 40 mM NaH2PO4, 100 mM NaF, 0.2 mM dithiothreitol, 5 mM ethylenediamine tetraacetic acid, 5 mM ethylenebis (oxyethylenenitrilo) tetraacetic acid, 1% Triton-X-100, 0.5% sodium deoxycholate, 0.1% sodium dodecylsulphate, 0.2 μM leupeptin and 0.2 μM phenylmethylsulphonylfluoride. Radioactivity in the pellet was quantified by liquid scintillation counting.
Resulting IC50 values are enumerated in Table C.1 for a number of compounds No. 1 to No. 123.
In the case of `O=C(Nc1ccc(N2CCC(C(C(=O)NCc3ccccc3)c3ccccc3)CC2)cc1)c1ccccc1-c1cccc(C(F)(F)F)c1` (stereo not drawn) [Co. No. 105], the pIC50 (usually −log10 of the IC50, conventionally taken in molar units) is 7.04.
As for `CCCNC(=O)C(c1ccccc1)C1CCN(c2ccc(NC(=O)c3ccccc3COc3ccccc3)cc2)CC1` (stereo not drawn) [Co. No. 17], the figure is 6.70.
`COC(=O)C(c1ccccc1)N1CCC(c2ccc(NC(=O)c3ccccc3-c3ccccc3)cc2)CC1` (stereo not drawn) [Co. No. 143]: the pIC50 is 6.63.
As for `O=C(Nc1ccc(N2CCN(C(C(=O)Oc3ccccc3)c3ccccc3)CC2)cc1)c1ccccc1-c1ccccc1` (stereo not drawn) [Co. No. 150], the figure is 6.76; as for `O=C(Nc1ccc(N2CCN(CC(C(=O)NCc3ccccc3)c3ccccc3)CC2)cc1)c1ccccc1-c1ccc(C(F)(F)F)cc1` (stereo not drawn) [Co. No. 67], 6.61; as for `CCCNC(=O)C(c1ccccc1)C1CCN(c2ccc(NC(=O)c3ccccc3-c3ccc(Cl)c(Cl)c3)cc2)CC1` (stereo not drawn) [Co. No. 83], 7.36.
The compound `C=CCOC(=O)C(c1ccccc1)C1CCN(c2ccc(NC(=O)c3ccccc3-c3ccc(C(F)(F)F)cc3)cc2)CC1` (stereo not drawn) [Co. No. 176] showed a pIC50 of 6.87.
The compound `O=C(Nc1ccc(N2CCC(C(C(=O)Nc3ccccc3)c3ccccc3)CC2)cc1)c1cccc2c1Cc1ccccc1-2` (stereo not drawn) [Co. No. 29] had a negative-log IC50 (pIC50) not above 5.52.
As for `CC(C)OC(=O)C(c1ccccc1)N1CCC(c2ccc(NC(=O)c3ccccc3-c3ccc(C(F)(F)F)cc3)cc2)CC1` (stereo not drawn) [Co. No. 223], the figure is 6.43; as for `Cc1ccc(-c2ccccc2C(=O)Nc2ccc(N3CCC(C(C(=O)Nc4ccccc4)c4ccccc4)CC3)cc2)cc1` (stereo not drawn) [Co. No. 117], 6.92; as for `C#CCOC(=O)C(c1ccccc1)N1CCC(c2ccc(NC(=O)c3ccccc3-c3ccc(C(F)(F)F)cc3)cc2)CC1` (stereo not drawn) [Co. No. 225], 7.17.
`C=CCNC(=O)C(c1ccccc1)N1CCC(c2ccc(NC(=O)c3ccccc3-c3ccccc3)cc2)CC1` (stereo not drawn) [Co. No. 163] had a negative-log IC50 (pIC50) of 6.60.
As for `CCNC(=O)C(c1ccccc1)C1CCN(c2ccc(NC(=O)c3ccccc3-c3cccc(C)c3)cc2)CC1` (stereo not drawn) [Co. No. 90], the figure is 7.85; as for `Cc1ccccc1-c1ccccc1C(=O)Nc1ccc(N2CCC(C(C(=O)Nc3ccccc3)c3ccccc3)CC2)cc1` (stereo not drawn) [Co. No. 107], 6.54; as for `O=C(Nc1ccc(C2=CCN(C(C(=O)Nc3ccccc3)c3ccccc3)CC2)cc1)c1ccccc1-c1ccc(C(F)(F)F)cc1` (stereo not drawn) [Co. No. 164], 7.00.
As for `CCNC(=O)C(c1ccccc1)N1CCN(c2ccc(NC(=O)c3ccccc3-c3ccc(C(F)(F)F)cc3)c(Cl)c2)CC1` (stereo not drawn) [Co. No. 214], the figure is more than 7.52.
As for `CCNC(=O)C(c1ccccc1)N1CCN(c2ccc(NC(=O)c3ccccc3-c3ccccc3)cc2)CC1` (stereo not drawn) [Co. No. 139], the figure is 7.07; as for `CC(C)NC(=O)C(c1ccccc1)C1CCN(c2ccc(NC(=O)c3ccccc3CSc3ccccc3)cc2)CC1` (stereo not drawn) [Co. No. 24], 6.07.
The compound `CCCNC(=O)C(c1ccccc1)C1CCN(c2ccc(NC(=O)c3ccccc3C(=O)c3ccccc3)cc2)CC1` (stereo not drawn) [Co. No. 15] had a pIC50 of 6.69.
On to `O=C(Nc1ccc(C2CCN(C(C(=O)OCCCc3ccccc3)c3ccccc3)CC2)cc1)c1ccccc1-c1ccc(C(F)(F)F)cc1` (stereo not drawn) [Co. No. 221], for which the negative logarithm of the IC50 (pIC50) is more than 7.52.
Turning to `CCCNC(=O)C(c1ccccc1)N1CCC(c2ccc(NC(=O)c3ccccc3-c3ccc(C(F)(F)F)cc3)cc2)CC1` (stereo not drawn) [Co. No. 70], the pIC50 was not below 7.52.
The same measure for `C=CCOC(=O)C(c1ccccc1)N1CCN(c2ccc(NC(=O)c3ccccc3-c3ccc(C(F)(F)F)cc3)cc2)CC1` (stereo not drawn) [Co. No. 144]: 6.70.
Compound `O=C(Nc1ccc(N2CCN(C(C(=O)OCc3ccccc3)c3ccccc3)CC2)cc1)c1ccccc1-c1ccccc1` (stereo not drawn) [Co. No. 147] gave a pIC50 of 6.54.
For `O=C(Nc1ccc(N2CCC(C(C(=O)NCc3ccccc3)c3ccc(F)cc3)CC2)cc1)c1ccccc1-c1ccc(C(F)(F)F)cc1` (stereo not drawn) [Co. No. 254], the pIC50 was 7.54.
